These results are taken from article PMC4032195 (ACS Chemical Biology, 2014).

One test concerns the target BRDT-1 (Homo sapiens, UniProt Q58F21). Kind of test: biochemical. Type of test: binding. The note with it: IC50 (μM) BRDT-1, Alpha Screen, KAc-histone H4 peptide (K5/8/12/16Ac).
The next test relates to BET bromodomains. Particulars: cited from earlier work.
The next test relates to VEGFR-1. The note with it: read-out: IC50 VEGFR-1; cited from earlier work.
The subject of a further test is VEGFR-2. Particulars: read-out: IC50 VEGFR-2; cited from earlier work.
In the next test the target is BRD4-1 (Homo sapiens, UniProt O60885). In words: biochemical. Type of test: binding. The note with it: IC50 (μM) BRD4-1, Alpha Screen, KAc-histone H4 peptide (K5/8/12/16Ac).

The term IC50 denotes the concentration that gives 50% inhibition.

Molecules are shown by their SMILES.

As to `COc1cc(Nc2nccc(Nc3ccc4c(C)n[nH]c4c3)n2)cc(OC)c1OC` [GW612286X], the IC50 against BRDT-1 was 7.6 µM. For the compound `O=c1cc(N2CCOCC2)oc2c(-c3ccccc3)cccc12` [LY294002], in the test on BET bromodomains, the “inhibition of BET bromodomains” value is recorded as “modest inhibitor of BET bromodomains”. As to `Cc1ccc(Nc2nccc(N(C)c3ccc4c(C)n(C)nc4c3)n2)cc1S(N)(=O)=O` [Pazopanib], the results for the IC50 in the test on VEGFR-1 and in the test on VEGFR-2 were 0.01 µM and […], respectively.

Regarding `COc1cc(Nc2ncc(F)c(Nc3ccc4c(n3)N(COP(=O)(O)O)C(=O)C(C)(C)O4)n2)cc(OC)c1OC` [Fostamatinib], the IC50 against BRD4-1 and against BRDT-1 was greater than 20 µM throughout.
